In US6482255B1, “Disazodyes for ink jet printing” (Avecia Limited, priority 1997, dated 2002):

Test: Solubility of dye or dye composition in water
Type: physicochemical
Protocol: The method of Example 1 was repeated except that the condensation reaction with ethanolamine in stage (iv) was stopped after 2.5 hours. The product was a mixture of Dye (A), Dye (B) and Dye (C) in relative proportions 43:35:22 by weight. This dye mixture has a solubility of 10% in water at 20° C. compared to a solubility of 3% for Dye (A) alone under the same conditions.
The ratio of Dyes (A), (B) and (C) in Example 4 may be varied by altering the time and temperature of the ethanolamine condensation step (Example 1, step (iv)). The solubility of a variety of dye compositions in water at 20° C. and pH 9.5 is shown in Table 2 below together with optical density, light fastness (ΔE after 50 hours) and wet-fastness results of prints prepared from these compositions. The prints were prepared by printing an ink formed by dissolving 2.5 parts of each composition in 97.5 parts of a mixture consisting of 88 parts water, 5 parts thiodiglycol, 5 parts 2-pyrrolidone and 2 parts Surfynol 465™ (a non-ionic surfactant) onto the substrate shown in the third column of Table 2 using a Canon 4300 ink jet printer.

Q: With `CNCCCNc1nc(NCCO)nc(Nc2ccc(/N=N/c3c(N)ccc4cc(S(=O)(=O)O)cc(O)c34)c(S(=O)(=O)O)c2)n1` [Dye (1)] as the molecule, how does the solubility in water (water at 20° C.) read?
A: Its solubility in water is 3%.

Q: What about the “Solubility (%)” value (water at 20° C. and pH 9.5) of the same molecule?
A: Its value is 3%.
